# Source: US20040110768A1, “Bombesin receptor antagonists” (priority 2000, published 2004)
# Where a name gives a salt, the structure may show the parent alone.
# Experiments:
# [1] = tested on: Ovariectomised adult female Sprague Dawley rats; test: Female rat sexual proceptivity test; format: in vivo; conditions: for difference in the percentage of time spent investigating the male stimuli minus female stimuli / MED, difference in percentage of time spent investigating male minus female stimuli: 1 h before test
# Procedure: Ovariectomised adult female Sprague Dawley rats (180-200 g) were housed in groups of 6 in a reversed lighting system of 12 h light:dark (lights off 7.00-19.00 h). Two weeks after ovariectomy they were used for sexual activity tests. Animals were Adapted to the apparatus (in the absence of stimuli animals) for 10 min on 2 Consecutive days prior to testing. The experiments started at least 5 h into the dark period. Tests were carried out in a circular arena of 90 cm diameter, surrounded by a 30 cm high wall. Two small cages with wire-mesh front (15×15 cm) are fixed into the wall such that the front of the cage is “flush” with the wall and the 2 cages are opposite each other. They contain two stimuli animals: an intact sexually experienced male and a receptive female (ovariectomised, primed with 5 μg oestradiol benzoate dissolved in corn oil and injected subcutaneously 48 h before the test and with 0.5 mg of progesterone 4 h before the test). Sexually naïve test and control animals were used. Forty eight hours before the tests, both the test and control animals were primed with 5 μg oestradiol benzoate. Test animals were treated with the above compound (1)(30-100 mg/kg) which was dissolved in PEG 200 vehicle and administered orally in a 1 ml/kg volume 1 h before each test. For animals used as positive controls, progesterone (0.5 mg/0.1 ml) was dissolved in corn oil and administered subcutaneously (s.c.), 4 h before the test. Test and control animals were introduced one at a time for 10-minute periods into the arena. During the 10-min test, the time that the test or positive control animal spent investigating each stimulus animal was noted. The arena was thoroughly cleaned between animals. The position of the male/female stimuli boxes was randomised between animals, in order to avoid place preference. The difference in the percentage of time spent investigating male minus female was calculated, out of the total time spent investigating stimuli animals.
# Example 21 was repeated except that compound (1) (3-30 mg/kg) was dissolved in 0.5% methyl cellulose and was administered p.o. in a dosing volume of 3 ml/kg 1 h before tests. Progesterone (0.5 mg/0.1 ml) was dissolved in corn oil and administered s.c., 4 h before test, as a positive control.
# [2] = tested on: Ovariectomised adult female Sprague Dawley rats; test: Female rat sexual receptivity test (lordosis quotient); format: in vivo
# Procedure: Ovariectomised adult female Sprague Dawley rats (180-200 g) were housed in groups of 6 in a reversed lighting system of 12 h light:dark (lights off 7.00-19.00 h). Two weeks after ovariectomy they were used for sexual activity tests. The experiments started at least 5 h into the dark period. Compound (1) was dissolved in PEG 200 vehicle and administered orally. Quinelorane dihydrochloride (LY 163,502, 6.25 μg/kg) was dissolved in water and administered s.c., as a positive control. Both compounds were administered in a 1-ml/kg volume. Forty eight hours before tests, the animals were primed with 5 μg oestradiol benzoate dissolved in corn oil and injected s.c. The females were placed with a series of vigorous male rats and subjected to 10 mounts. The lordotic response of the animal was recorded and expressed as a percentage of the mounts (i.e. lordosis quotient, LQ). […] Animals showing higher LQ were not included in the study. Each rat was tested prior to administration of the compound (1) and then tested similarly at 1 h and at 90 min post-injection of compound (1) or quinelorane respectively.
SMILES,melting point [°C],further results
"COc1ccc(C2(CNC(=O)[C@](C)(Cc3c[nH]c4ccccc34)Nc3nc(-c4ccc([N+](=O)[O-])cc4)co3)CCCCC2)nc1 [Example 1, (S)-3-(1H-Indol-3-yl)-N-[1-(5-methoxy-pyridin-2-yl)-cyclohexylmethyl]-2-methyl-2-[4-(4-nitro-phenyl)-oxazol-2-ylamino]-propionamide]",100 to 105,"difference in the percentage of time spent investigating the male stimuli minus female stimuli ([1]; 0.5% methyl cellulose, p.o., 3-30 mg/kg): increased; MED, difference in percentage of time spent investigating male minus female stimuli ([1]; 0.5% methyl cellulose, p.o.): 10 mg/kg; difference in the percentage of time spent investigating the male stimuli minus female stimuli ([1]; PEG 200 vehicle, oral, 30-100 mg/kg): increased; MED, difference in percentage of time spent investigating male minus female stimuli ([1]; PEG 200 vehicle, oral): 100 mg/kg; increase in potency in methyl cellulose compared to PEG 200 vehicle ([1]; oral, MED 10 vs 100 mg/kg): 10 fold; lordosis quotient (LQ) versus before administration ([2]; PEG 200, single oral administration, 10-100 mg/kg, 1 h after administration): increased"
"COCC1(CNC(=O)[C@](C)(Cc2c[nH]c3ccccc23)Nc2nc(-c3ccc([N+](=O)[O-])cc3)co2)CCCCC1 [Example 2, (S)-3-(1H-Indol-3-yl)-N-(1-methoxymethyl-cyclohexylmethyl)-2-methyl-2-[4-(4-nitro-phenyl)-oxazol-2-ylamino]-propionamide]",189 to 192,–
"C[C@@](Cc1c[nH]c2ccccc12)(Nc1nc(-c2ccc([N+](=O)[O-])cc2)co1)C(=O)NCC(=O)c1ccccc1 [Example 3, (S)-3-(1H-Indol-3-yl)-2-methyl-2-[4-(4-nitro-phenyl)-oxazol-2-ylamino]-N-(2-oxo-2-phenyl-ethyl)-propionamide]",80 to 90,–
"COc1ccc(C2(CNC(=O)[C@](C)(Cc3c[nH]c4ccccc34)Nc3nc(-c4ccc(C#N)cc4)co3)CCCCC2)nc1 [Example 5, (S)-2-[4-(4-Cyano-phenyl)-oxazol-2-ylamino]-3-(1H-indol-3-yl)-N-[1-(5-methoxy-pyridin-2-yl)-cyclohexylmethyl]-2-methyl-propionamide]",105 to 108,–
"COc1ccc(C2(CNC(=O)[C@](C)(Cc3c[nH]c4ccccc34)Nc3nc(-c4ccccc4)co3)CCCCC2)nc1 [Example 6, (S)-3-(1H-Indol-3-yl)-N-[1-(5-methoxy-pyridin-2-yl)-cyclohexylmethyl]-2-methyl-2-(4-phenyl-oxazol-2-ylamino)-propionamide]",85 to 90,–
"CC(=O)[C@H]1CC[C@H]2[C@@H]3CCC4=CC(=O)CC[C@]4(C)[C@H]3CC[C@]12C [progesterone, reference compound]",–,"effect on proceptivity (positive control) ([1]; 0.5 mg/0.1 ml in corn oil s.c., 4 h before test): maximal"
"CCCN1CCC[C@@H]2Cc3nc(N)ncc3C[C@H]21 [quinelorane, Quinelorane dihydrochloride, reference compound]",–,"lordosis quotient (LQ) versus before administration ([2]; 6.25 μg/kg s.c. in water, 90 min after administration): significantly (P<0.01) increased"

# Now from value to compound, other results behind:
melting point [°C],SMILES,further results
60 to 65,"CCc1coc(N[C@@](C)(Cc2c[nH]c3ccccc23)C(=O)NCC2(c3ccc(OC)cn3)CCCCC2)n1 [Example 7, (S)-2-(4-Ethyl-oxazol-2-ylamino)-3-(1H-indol-3-yl)-N-[1-(5-methoxy-pyridin-2-yl)-cyclohexylmethyl]-2-methyl-propionamide]",–
110 to 114,"COc1ccc(C2(CNC(=O)[C@](C)(Cc3c[nH]c4ccccc34)Nc3nc(-c4ccc([N+](=O)[O-])cc4)cs3)CCCCC2)nc1 [Example 8, (S)-3-(1H-Indol-3-yl)-N-[1-(5-methoxy-pyridin-2-yl)-cyclohexylmethyl]-2-methyl-2-[4-(4-nitro-phenyl)-thiazol-2-ylamino]-propionamide]",–
198 to 200,"C[C@@](Cc1c[nH]c2ccccc12)(Nc1nc2ccccc2o1)C(=O)NCC1(c2ccccn2)CCCCC1 [Example 9, (S)-2-(Benzooxazol-2-ylamino)-3-(1H-indol-3-yl)-2-m thyl-N-(1-pyridin-2-yl-cyclohxylmethyl)-propionamide]",–
180 to 195,"C[C@@](Cc1c[nH]c2ccccc12)(Nc1ccncc1)C(=O)NCC1(c2ccccn2)CCCCC1 [Example 10, (S)-3-(1H-Indol-3-yl)-2-methyl-2-(pyridin-4-ylamino)-N-(1-pyridin-2-yl-cyclohexylmethyl)-propionamide]",–
98 to 101,"C[C@@](Cc1c[nH]c2ccccc12)(Nc1cncc2ccccc12)C(=O)NCC1(c2ccccn2)CCCCC1 [Example 11, (S)-3-(1H-Indol-3-yl)-2-(isoquinolin-4-ylamino)-2-methyl-N-(1-pyridin-2-yl-cyclohexylmethyl)-propionamide]",–
95 to 98,"C[C@@](Cc1c[nH]c2ccccc12)(Nc1cncnc1)C(=O)NCC1(c2ccccn2)CCCCC1 [Example 12, (S)-3-(1H-Indol-3-yl)-2-methyl-N-(1-pyridin-2-yl-cyclohexylmethyl)-2-(pyrimidin-5-ylamino)-propionamide]",–
70 to 75,"Cc1cccc(N[C@@](C)(Cc2c[nH]c3ccccc23)C(=O)NCC2(c3ccccn3)CCCCC2)c1 [Example 14, (S)-3-(1H-Indol-3-yl)-2-methyl-N-(1-pyridin-2-yl-cyclohexylmethyl)-2-m-tolylamino-propionamide]",–
58 to 60,"C[C@@](Cc1c[nH]c2ccccc12)(NCc1ccc([N+](=O)[O-])cc1)C(=O)NCC1(c2ccccn2)CCCCC1 [Example 19, (S)-3-(1H-Indol-3-yl)-2-methyl-2-(4-nitro-benzylamino)-N-(1-pyridin-2-yl-cyclohexylmethyl)-propionamide]",–
